Counter-ions that a name gives are not always drawn. Like-named read-outs stand apart in the source and are kept apart here.
Key:
[1] = test system: platelets (aggregation induced by collagen); experiment: Anti-aggregation action, platelet aggregation induced by collagen; type: in vivo, male Wistar rats; details: 4 days; for change in aggregation, collagen, latency period / change in aggregation, collagen, speed / change in aggregation, collagen, transmission: oral 100 mg/kg, collagen/acetic acid diluted 1/10
Description: (a) by collagen: the inhibition of aggregation (which corresponds to the % transmission), the latency period and the speed; and
(§1) In Table IV which follows have been shown the results relating to the anti-aggregation action of some products on the blood of male Wistar rats, the aggregating agents used being collagen/acetic acid diluted 1/10, and ADP at 1 μM.

[2] = Reduction of lipids and cholesterol in rats treated orally; type: in vivo; details: Rattus norvegicus
Description: Some of the other results of the pharmacological tests which were carried out on rats are summarised below.
Rats given a normal diet are treated orally at a daily dose of 50 mg/kg for 3 and 5 days. A reduction of about 20% in the concentration of cholesterol and lipids in the plasma is observed.

[3] = test system: platelets (aggregation induced by ADP); experiment: Anti-aggregation action, platelet aggregation induced by ADP; type: in vivo, male Wistar rats; details: oral 100 mg/kg, 4 days; for inhibition at 100 mg/kg: Rattus norvegicus, Platelet, 96 h, read-out: inhibition of transmission (ADP test); for change in aggregation, ADP transmission: ADP at 1 μM
Description: (b) by ADP: the inhibition of aggregation (that is to say the % transmission).
as §1

[4] = Reduction of lipids and cholesterol in rats treated orally; type: in vivo; details: for inhibition in vivo at 10 mg/kg / inhibition in vivo at 20 mg/kg: Rattus norvegicus, 72 h, 3 days; for inhibition in vivo at 10 mg/kg: oral 10 mg/kg; for inhibition in vivo at 20 mg/kg: oral 20 mg/kg
[5] = Solubility of the isolated product; details: water
[6] = test system: blood platelet aggregation; experiment: Anti-aggregation action in rats (graded / in words); type: in vivo; parameters: key to Anti-aggregation action: -: zero activity; +: significant activity; ++: intense activity; +++: very intense activity; details: for anti-aggregation activity (in words): results of Table IV
[7] = Clinical tests in man; type: in vivo
Description: The clinical tests have made it possible to confirm the pharmacological tests. Thus, in man, CRL 40,293 (Example 23) in the form of gelatine-coated pills containing 400 mg of active ingredient administered at the rate of 2 such pills twice daily has given good results in the treatment of circulatory complaints and especially of lipid disturbances.
CRL 40,386 (Example 8) has been used in man for the treatment of hyperlipidaemia in the form of gelatine-coated pills each containing 300 mg of active ingredient at the rate of 2 to 6 such pills per day.

[8] = Hypo-lipidaemic and hypo-cholesterolaemic action in rats on hyper-lipid diet; type: in vivo, Wistar rats; details: Rattus norvegicus, 0.1 g/kg in rats
Excerpt: A. a batch of rats receiving a normal diet (percentage inhibition=100%);
B. a batch of rats receiving a hyper-lipid diet (percentage inhibition=0%);
C. a batch of rats receiving the hyper-lipid diet B with a daily dose, of 0.1 g/kg, of a reference product having a lipidaemia-normalising action, namely Lipavlon [ethyl 2-(p-chlorophenoxy)-2-methyl-propionate];
D. a batch of rats receiving the hyper-lipid diet B with a daily dose, of 0.1 g/kg, of another product having a lipidaemia-normalising action, namely LL 1558 [1,10-bis-(2-hydroxyethyl-thio)-decane]; and
E. a batch of rats receiving the hyper-lipid diet B with a daily dose of 10 mg/kg and 25 mg/kg, where necessary, higher doses.
In Table III which follows have been shown the results relating to CRL 40,201 (the product of Example 17) and CRL 40,202 (the product of Example 18) in respect of the hypo-lipidaemic action and hypo-cholesterolaemic action.

[9] = type: in vivo; details: oral, male rats
Description: (§2) In female mice, the LD-50 on oral administration is 2,050 mg/kg. In male rats, the LD-0, on oral administration, is greater than 600 mg/kg.

[10] = Hypo-lipidaemic and hypo-cholesterolaemic action of other products (Table V); type: in vivo, rats; details: for change in vivo at 50 mg/kg / change in vivo at 100 mg/kg / change in vivo at 200 mg/kg: Rattus norvegicus; for change in vivo at 50 mg/kg: 72 h, oral 50 mg/kg for 3 days; for change in vivo at 100 mg/kg / change in vivo at 200 mg/kg: 96 h; for change in vivo at 100 mg/kg: oral 100 mg/kg for 4 days; for change in vivo at 200 mg/kg: oral 200 mg/kg for 4 days
Excerpt: The results of the anti-aggregation test and of the hypo-[…] action and hypo-cholesterolaemic action tests of other products of the invention have been […] Table V which follows, the code used being the following (for each dose shown): […]

[11] = in vivo; details: mouse, oral, female mice
Description: as §2

[12] = test system: stomach and duodenum; experiment: Gastric tolerance in fasting rats; type: in vivo
Excerpt: It has furthermore been observed that CRL 40,293 is a well-tolerated substance.

[13] = test system: cardio-vascular parameters; experiment: Cardio-vascular activity in anaesthetised dogs; type: in vivo; details: intraduodenal 100 then 200 mg/kg
Description: Three anaesthetised dogs are used for this study. The product is administered intraduodenally as a gum suspension.
Two dogs with the thorax closed and respiring spontaneously are given CRL 40,293 at a dose of 100 mg/kg followed by 200 mg/kg, this second dose being administered 1 hour 30 minutes to 2 hours after the first.
One dog with the thorax opened is given 100 mg/kg, followed after 1 hour by 200 mg/kg, of CRL 40,293.
In these animals the effects of injections of noradrenalin, acetylcholine, tyramine, DMPP, histamine and serotonine were unchanged and the same is true of the effects of occlusion of the carotids and of stimulation of the central end and peripheral end of the vagus.

[14] = read-out: reduction in the cholesterol
[15] = read-out: reduction in the lipids
[16] = read-out: Total lipids (change)
[17] = tablet of 250 to 500 mg, to prevent cardiovascular accidents, especially coronary insufficiency

CC(COC(=O)C(C)Oc1ccc(Sc2ccc(Cl)cc2)cc1)SCCCCCCCCCCSC(C)COC(=O)C(C)Oc1ccc(Sc2ccc(Cl)cc2)cc1 (racemic) [CRL 40,391, (±)-2,15-Dimethyl-3,14-dithia-1,16-hexadecyl di-(±)-{2-[p-(p-chlorophenylthio)-phenoxy]-propionate}]
latency time (collagen test) ([1]; 100 mg/kg, unit not given): +40 | speed (collagen test) ([1]; 100 mg/kg, unit not given): -32 | inhibition in vivo at 50 mg/kg ([2]; 72 h, oral 50 mg/kg, 3 days, read-out: reduction in the cholesterol): 42% | inhibition in vivo at 50 mg/kg ([2]; 72 h, oral 50 mg/kg, 3 days, read-out: reduction in the lipids): 29% | inhibition at 100 mg/kg [3]: 19% | inhibition in vivo at 10 mg/kg [4, 14]: 32% | inhibition in vivo at 10 mg/kg [4, 15]: 17% | inhibition in vivo at 20 mg/kg [4, 14]: 43% | inhibition in vivo at 20 mg/kg [4, 15]: 21%

CC(C)(CNCCO)Oc1ccc(Sc2ccc(Cl)cc2)cc1 [CRL 40,238, N-Hydroxyethyl-4-(4-chlorophenylthio)-phenoxy-isobutylamine hydrochloride]
change in aggregation, collagen, latency period [1]: +18% | change in aggregation, collagen, speed [1]: -52% | change in aggregation, collagen, transmission [1]: -47% | solubility in water (in words) [5]: insoluble in water | anti-aggregation activity (in words) [6]: the most interesting amongst them | change in aggregation, ADP transmission [3]: -46%

O=C(O)CSc1ccc(Oc2ccc(Cl)cc2)cc1 [CRL 40,271, 4-(4-Chlorophenoxy)-phenylthioacetic acid]
change in aggregation, collagen, latency period [1]: +15% | change in aggregation, collagen, speed [1]: -60% | change in aggregation, collagen, transmission [1]: -25% | tolerance in man ([7]; gelatine-coated pill of 200 to 400 mg, 1 to 2 per day): well tolerated | treatment of circulatory complaints due to hyperlipidaemias ([7]; man, gelatine-coated pill of 200 to 400 mg, 1 to 2 per day): efficient | inhibition at 100 mg/kg ([8]; read-out: cholesterol inhibition): 54% | inhibition at 100 mg/kg ([8]; read-out: total lipids inhibition): 35% | anti-aggregation activity (in words) [6]: the most interesting amongst them | change in aggregation, ADP transmission [3]: -28%

O=C(CSc1ccc(Oc2ccc(Cl)cc2)cc1)NCCO [CRL 40,272, N-Hydroxyethyl-4-(4-chlorophenoxy)-phenylthioacetamide]
change in aggregation, collagen, latency period [1]: +16% | change in aggregation, collagen, transmission [1]: 0% | change in aggregation, ADP transmission [3]: -20%

OCCNCCSc1ccc(Oc2ccc(Cl)cc2)cc1 [CRL 40,274, N-Hydroxyethyl-2-[4-(4-chlorophenoxy)phenylthio]-ethylamine]
change in aggregation, collagen, speed [1]: 0% | solubility in water (in words) [5]: insoluble in water | change in aggregation, ADP transmission [3]: -20%

CC(C)(CO)Sc1ccc(Oc2ccc(Cl)cc2)cc1 [CRL 40,276, 4-(4-Chlorophenoxy)-phenylthio-isobutanol]
change in aggregation, collagen, latency period [1]: +25% | change in aggregation, collagen, speed [1]: -13% | change in aggregation, collagen, transmission [1]: -31% | change in aggregation, ADP transmission [3]: -20%

OCCOc1ccc(Oc2ccc(Cl)cc2)cc1 [CRL 40,293, 2-[4-(4-Chlorophenoxy)-phenoxy]ethanol]
treatment of circulatory complaints and especially of lipid disturbances ([7]; man, gelatine-coated pills of 400 mg, 2 pills twice daily): good results | LD-0 [9]: greater than 600 mg/kg | change in vivo at 50 mg/kg ([10]; read-out: Cholesterol (change)): -40% | change in vivo at 50 mg/kg [10, 16]: -40% | hypo-lipidaemic and hypocholesterolaemic activity (in words) ([10]; oral 50 mg/kg): good hypo-lipidaemic and hypocholesterolaemic activity | Anti-aggregation action ([6]; 100 mg/kg per day for 3 days): +++ | Anti-aggregation action ([6]; oral 50 mg/kg for 3 days): ++ | LD50 [11]: 2050 mg/kg | ulceration or inflammation of the stomach and of the duodenum ([12]; fasting rats, 1 g/kg through a probang, 8 hours after administration): no ulceration or inflammation of the stomach and of the duodenum is observed | tolerance (in words) ([12]; rat, in vivo): well-tolerated | decrease in cholesterol ([4]; daily oral 10 mg/kg, 3-4 days): 20% | decrease in total lipids ([4]; daily oral 10 mg/kg, 3-4 days): 20% | change of parameters: arterial pressure, pulse rate, left intra-ventricular pressure, dp/dt, vertebral and femoral arterial flow rates, respiration ([13]; closed thorax, 2 hours' observation): None of the parameters measured changed | effects of noradrenalin, acetylcholine, tyramine, DMPP, histamine and serotonine injections, carotid occlusion and vagus stimulation ([13]; dogs): unchanged | change of parameters: arterial pressure, pulse rate, left intraventricular pressure, dp/dt, aorta flow rate, work of left ventricle, coronary arterial flow rate ([13]; opened thorax, 2 hours' observation): None of the parameters measured changed

Cl.OCCNCCOc1ccc(Oc2ccc(Cl)cc2)cc1 [CRL 40,295, N-Hydroxyethyl-2-[4-(4-chlorophenoxy)-phenoxy]-1-ethylamine hydrochloride]
solubility [5]: 200 mg/mL | tolerance in man [7, 17]: well tolerated | change in vivo at 100 mg/kg ([10]; read-out: Cholesterol (change)): -32% | change in vivo at 100 mg/kg [10, 16]: -19% | change in vivo at 200 mg/kg ([10]; read-out: Cholesterol (change)): -37% | change in vivo at 200 mg/kg [10, 16]: -28% | Anti-aggregation action ([6]; oral 100 mg/kg for 4 days): +++ | Anti-aggregation action ([6]; oral 200 mg/kg for 4 days): +++

Cl.NCCOc1ccc(Oc2ccc(Cl)cc2)cc1 [CRL 40,317, 2-[4-(4-Chlorophenoxy)-phenoxy]-ethylamine hydrochloride]
solubility in water (in words) [5]: soluble in water | tolerance in man [7, 17]: well tolerated | change in vivo at 100 mg/kg [10, 16]: -37% | Anti-aggregation action ([6]; oral 100 mg/kg for 4 days): +

O=C(CSc1ccc(Sc2ccc(Cl)cc2)cc1)OCCSCCCCCCCCCCSCCOC(=O)CSc1ccc(Sc2ccc(Cl)cc2)cc1 [CRL 40,394, 3,14-Dithia-1,16-hexadecyl di-[p-(p-chlorophenylthio)-phenylthio-acetate]]
inhibition in vivo at 50 mg/kg ([2]; po, 120 h, 50 mg/kg, 5 days, read-out: reduction in the cholesterol): 16% | inhibition in vivo at 50 mg/kg ([2]; po, 120 h, 50 mg/kg, 5 days, read-out: reduction in the lipids): 33%

CC(C)(Sc1ccc(Sc2ccc(Cl)cc2)cc1)C(=O)OCCSCCCCCCCCCCSCCOC(=O)C(C)(C)Sc1ccc(Sc2ccc(Cl)cc2)cc1 [CRL 40,402, 3,14-Dithia-1,16-hexadecyl di-{2-[p-(p-chlorophenylthio)-phenylthio]-2-methylpropionate}]
inhibition at 100 mg/kg [3]: 25% | inhibition in vivo at 20 mg/kg [4, 14]: 14% | inhibition in vivo at 20 mg/kg [4, 15]: 17% | cholesterol content and lipids content (in words) ([4]; oral 10, 20 and 50 mg/kg, 3 to 5 days): a reduction in the cholesterol content and lipids content is observed
